Source: ChEMBL document CHEMBL1131856, “Wasalexins A and B, new phytoalexins from wasabi: isolation, synthesis, and antifungal activity” (1999)

How the values were obtained:
[1] = system: Plenodomus lingam; test: Antifungal activity against P. Lingam by spore germination assay after 24 hours; range is 40-50%; type: functional
[2] = system: Plenodomus lingam; test: Antifungal activity against P. Lingam by spore germination assay after 24 hours; No detectable inhibitory activity; type: functional, organism-based

SMILES | Inhibition [1] | Activity [2]
CON1C(=O)/C(=C/N=C(SC)SC)c2ccccc21 | 50% | –
CSC(=N/C=C1/C(=O)N(C)c2ccccc21)SC | – | No detectable inhibitory activity
COC(=O)c1cn(OC)c2ccccc12 | 50% | –
